pIC50: −log10 of the molar value.
Assay: Inhibitory activity against IMP-1 metallo-beta-lactamase (MBL)

Row | SMILES | pIC50
1 | CC(=O)S[C@@H](Cc1ccc2oc3ccccc3c2c1)C(=O)O | 3.80
2 | C[C@@H](NC(=O)c1ccccc1)C(=O)S[C@@H](Cc1ccc2oc3ccccc3c2c1)C(=O)O | 3.37
3 | O=C(O)[C@H](S)Cc1ccccc1 | 7.07
4 | C[C@@H](NC(=O)c1cccc(N(C)C)c1)C(=O)S[C@H](Cc1ccc(-c2ccccc2)cc1)C(=O)O | 4.82
5 | CC(=O)S[C@@H](Cc1ccc(-c2ccccc2)cc1)C(=O)O | 4.13
6 | O=C(O)[C@@H](S)Cc1ccc(-c2ccccc2)cc1 | 5.92
7 | O=C(S[C@@H](Cc1ccc(-c2ccccc2)cc1)C(=O)O)c1ccccc1 | 3.92
8 | O=C(S[C@H](Cc1ccc(-c2ccccc2)cc1)C(=O)O)c1ccccc1 | 9.39
9 | CC(=O)S[C@H](Cc1ccc2oc3ccccc3c2c1)C(=O)O | 7.35
10 | O=C(S[C@@H](Cc1ccc2oc3ccccc3c2c1)C(=O)O)c1ccccc1 | 4.31
11 | C[C@@H](NC(=O)CNC(=O)c1ccccc1)C(=O)S[C@H](Cc1ccc(-c2ccccc2)cc1)C(=O)O | 4.30
12 | C[C@@H](NC(=O)/C=C/c1ccccc1)C(=O)S[C@H](Cc1ccc(-c2ccccc2)cc1)C(=O)O | 4.96
13 | C[C@@H](NC(=O)Cc1ccccc1OCc1ccccc1)C(=O)S[C@H](Cc1ccc(-c2ccccc2)cc1)C(=O)O | 4.62
14 | C[C@@H](NC(=O)c1ccccc1)C(=O)SCC(=O)O | 3.62
15 | COc1cc(OC)c(C(=O)N[C@H](C)C(=O)S[C@H](Cc2ccc(-c3ccccc3)cc2)C(=O)O)c(OC)c1 | 4.34
16 | O=C(O)[C@H](S)Cc1ccc(-c2ccccc2)cc1 | 7.24
17 | O=C(S[C@H](Cc1ccc2oc3ccccc3c2c1)C(=O)O)c1ccccc1 | 8.89
18 | C[C@@H](NC(=O)Cc1ccc(N(C)C)cc1)C(=O)S[C@H](Cc1ccc(-c2ccccc2)cc1)C(=O)O | 4.26
19 | O=C(S[C@@H](Cc1ccccc1)C(=O)O)c1ccccc1 | 5.60
20 | O=C(S[C@H](Cc1ccccc1)C(=O)O)c1ccccc1 | 7.19
21 | O=C(O)[C@@H](S)Cc1ccc2oc3ccccc3c2c1 | 6.60
22 | C[C@@H](NC(=O)c1ccccc1)C(=O)S[C@H](Cc1ccc2oc3ccccc3c2c1)C(=O)O | 5.82
23 | O=C(O)[C@H](S)Cc1ccc2oc3ccccc3c2c1 | 7.64
24 | O=C(O)[C@@H](S)Cc1ccccc1 | 5.43
25 | C[C@@H](NC(=O)Cc1cccc2ccccc12)C(=O)S[C@H](Cc1ccc(-c2ccccc2)cc1)C(=O)O | 4.92
26 | CC(=O)S[C@H](Cc1ccc(-c2ccccc2)cc1)C(=O)O | 7.08
27 | C[C@@H](NC(=O)CCC(=O)c1ccccc1)C(=O)S[C@H](Cc1ccc(-c2ccccc2)cc1)C(=O)O | 6.60
28 | C[C@@H](NC(=O)c1ccc2ccccc2c1)C(=O)S[C@H](Cc1ccc(-c2ccccc2)cc1)C(=O)O | 4.74

The next lines start with the values.

Row | pIC50 | SMILES
29 | 5.02 | CCC(=O)N[C@H](C)C(=O)S[C@H](Cc1ccc(-c2ccccc2)cc1)C(=O)O
30 | 4.70 | C[C@@H](NC(=O)c1ccccc1)C(=O)S[C@H](Cc1ccccc1)C(=O)O
31 | 5.01 | CC(C)C(=O)N[C@H](C)C(=O)S[C@H](Cc1ccc(-c2ccccc2)cc1)C(=O)O
32 | 5.54 | C=CCOC(=O)N[C@H](C)C(=O)S[C@H](Cc1ccc2oc3ccccc3c2c1)C(=O)O
33 | 4.74 | CC(=O)N[C@H](C)C(=O)S[C@H](Cc1ccc(-c2ccccc2)cc1)C(=O)O
34 | 5.51 | C[C@@H](NC(=O)Cc1ccc(O)cc1)C(=O)S[C@H](Cc1ccc(-c2ccccc2)cc1)C(=O)O
35 | 5.44 | C[C@@H](NC(=O)c1ccccc1)C(=O)S[C@H](Cc1ccc(-c2ccccc2)cc1)C(=O)O
36 | 4.20 | CC(=O)N[C@H](C)C(=O)S[C@H](Cc1ccccc1)C(=O)O
37 | 5.32 | CCCCC(=O)N[C@H](C)C(=O)S[C@H](Cc1ccc(-c2ccccc2)cc1)C(=O)O
38 | 4.54 | COc1ccc(C(=O)N[C@H](C)C(=O)S[C@H](Cc2ccc(-c3ccccc3)cc2)C(=O)O)cc1
39 | 5.70 | CC(=O)N[C@H](C)C(=O)S[C@H](Cc1ccc2oc3ccccc3c2c1)C(=O)O
40 | 3.13 | CC(=O)S[C@@H](Cc1ccccc1)C(=O)O
41 | 5.36 | C=CCOC(=O)N[C@H](C)C(=O)S[C@H](Cc1ccc(-c2ccccc2)cc1)C(=O)O
42 | 4.82 | C[C@@H](NC(=O)CCc1ccccc1)C(=O)S[C@H](Cc1ccc(-c2ccccc2)cc1)C(=O)O
43 | 5.24 | C[C@@H](NC(=O)Cc1ccccc1)C(=O)S[C@H](Cc1ccc(-c2ccccc2)cc1)C(=O)O
44 | 6.00 | C[C@@H](NC(=O)COc1ccccc1)C(=O)S[C@H](Cc1ccc(-c2ccccc2)cc1)C(=O)O
45 | 4.92 | COc1ccc(CC(=O)N[C@H](C)C(=O)S[C@H](Cc2ccc(-c3ccccc3)cc2)C(=O)O)cc1
46 | 5.33 | C[C@@H](NC(=O)CCC(=O)O)C(=O)S[C@H](Cc1ccc(-c2ccccc2)cc1)C(=O)O
47 | 4.89 | CCCCCC(=O)N[C@H](C)C(=O)S[C@H](Cc1ccc(-c2ccccc2)cc1)C(=O)O
48 | 4.89 | C[C@@H](NC(=O)CSCC(=O)O)C(=O)S[C@H](Cc1ccc(-c2ccccc2)cc1)C(=O)O
49 | 4.92 | CC(=O)S[C@H](Cc1ccccc1)C(=O)O
50 | 4.42 | COc1cccc(C(=O)N[C@H](C)C(=O)S[C@H](Cc2ccc(-c3ccccc3)cc2)C(=O)O)c1
51 | 5.03 | CCCC(=O)N[C@H](C)C(=O)S[C@H](Cc1ccc(-c2ccccc2)cc1)C(=O)O
52 | 4.49 | C[C@@H](NC(=O)Cc1cccnc1)C(=O)S[C@H](Cc1ccc(-c2ccccc2)cc1)C(=O)O
53 | 4.48 | C/C=C/C(=O)N[C@H](C)C(=O)S[C@H](Cc1ccc(-c2ccccc2)cc1)C(=O)O
54 | 4.19 | C=CCOC(=O)N[C@H](C)C(=O)S[C@H](Cc1ccccc1)C(=O)O
55 | 4.04 | C[C@@H](NC(=O)CCCC(=O)O)C(=O)S[C@H](Cc1ccc(-c2ccccc2)cc1)C(=O)O
56 | 5.28 | CC(C)CC(=O)N[C@H](C)C(=O)S[C@H](Cc1ccc(-c2ccccc2)cc1)C(=O)O
